These results are taken from patent publication US20090069320A1, “Substituted 4-Amino-Quinazoline Compounds with Metabotropic Glutamate Receptor Regulating Activity and Uses Thereof” (Gruenenthal GmbH, priority 2006, published 2009).

The target in one test is T1, mGluR5 receptor (Sus scrofa, UniProt I3LUI7).
T1 construct: 450 μg of protein from brain homogenate with 5 nM ^3[H]-MPEP; from tissue; host or cells: pig brain halves without medulla, cerebellum and pons
T1 sequence (I3LUI7 19-1212): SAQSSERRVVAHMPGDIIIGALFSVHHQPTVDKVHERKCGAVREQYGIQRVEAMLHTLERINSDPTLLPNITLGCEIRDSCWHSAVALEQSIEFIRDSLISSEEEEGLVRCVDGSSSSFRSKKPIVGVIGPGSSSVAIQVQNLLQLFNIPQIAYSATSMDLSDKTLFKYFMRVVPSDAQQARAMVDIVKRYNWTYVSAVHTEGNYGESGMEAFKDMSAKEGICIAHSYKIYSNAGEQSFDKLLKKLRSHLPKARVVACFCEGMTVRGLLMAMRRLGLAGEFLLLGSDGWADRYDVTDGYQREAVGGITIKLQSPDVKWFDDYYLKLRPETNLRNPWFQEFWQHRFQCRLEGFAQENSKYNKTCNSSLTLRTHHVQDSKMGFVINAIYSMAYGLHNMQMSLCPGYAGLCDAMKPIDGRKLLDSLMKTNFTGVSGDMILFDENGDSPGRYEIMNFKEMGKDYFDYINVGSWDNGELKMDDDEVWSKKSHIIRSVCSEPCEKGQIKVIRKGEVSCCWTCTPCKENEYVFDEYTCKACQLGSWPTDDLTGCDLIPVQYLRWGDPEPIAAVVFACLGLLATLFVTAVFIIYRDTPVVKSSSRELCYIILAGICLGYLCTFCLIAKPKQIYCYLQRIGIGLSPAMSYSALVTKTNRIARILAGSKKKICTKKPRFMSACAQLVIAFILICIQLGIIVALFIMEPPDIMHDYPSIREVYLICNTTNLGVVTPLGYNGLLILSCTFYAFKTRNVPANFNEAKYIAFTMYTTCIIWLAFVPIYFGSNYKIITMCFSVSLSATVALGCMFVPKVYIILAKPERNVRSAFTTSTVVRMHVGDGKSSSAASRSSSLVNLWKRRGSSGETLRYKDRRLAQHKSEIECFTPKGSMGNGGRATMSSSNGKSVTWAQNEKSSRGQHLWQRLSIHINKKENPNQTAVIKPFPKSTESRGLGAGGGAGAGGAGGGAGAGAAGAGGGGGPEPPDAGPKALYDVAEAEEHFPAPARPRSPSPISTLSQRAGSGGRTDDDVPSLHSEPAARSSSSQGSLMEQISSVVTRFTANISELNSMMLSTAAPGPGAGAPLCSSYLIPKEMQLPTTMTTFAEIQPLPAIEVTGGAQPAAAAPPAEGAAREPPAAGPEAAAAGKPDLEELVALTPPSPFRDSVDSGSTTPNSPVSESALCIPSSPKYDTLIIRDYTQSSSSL
Kind of test: [3H]-MPEP mGluR5 receptor binding assay (pig brain homogenate). The settings on record: 5 nM [3H]-MPEP, read-out: IC50 mGluR5 Receptor (pig) [^3H]-MPEP Bond. In short, it runs like this: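 Radioligand displacement of 5 nM [3H]-MPEP from pig brain homogenate (450 μg protein; medulla, cerebellum and pons removed) in 20 mM Hepes pH 8.0. Compounds were tested at 10 μM, incubated 60 min at room temperature, then filtered and counted by scintillation. Non-specific binding was defined with 10 μM MPEP.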
As for `O=C(c1ccccn1)N(Cc1cccc(-c2cc(F)c3ncnc(NC4CC4)c3c2)c1)C1CC1` [Example 708, N-cyclopropyl-N-(3-(4-(cyclopropylamino)-8-fluoroquinazolin-6-yl)benzyl)picolinamide], the IC50 worked out at 130 nM.
Turning to `CC(=O)N(Cc1cccc(-c2cc3c(NC4CC4)ncnc3cc2C)c1)C1CC1` [Example 710, N-cyclopropyl-N-(3-(4-(cyclopropylamino)-7-methylquinazolin-6-yl)benzyl)acetamide], the IC50 was 110 nM.
Same read-out and setting: the value for `CC(=O)N(Cc1cccc(-c2cc(F)c3ncnc(NC4CC4)c3c2)c1)C1CC1` [Example 716, N-cyclopropyl-N-(3-(4-(cyclopropylamino)-8-fluoroquinazolin-6-yl)benzyl)acetamide] was 120 nM.

Still in this test, the particulars now being: 10 μM compound, 5 nM [3H]-MPEP.
In the case of `COc1ccc(S(=O)(=O)N(Cc2cccc(-c3cc(F)c4ncnc(NC5CC5)c4c3)c2)C2CC2)cc1` [Example 694, N-cyclopropyl-N-(3-(4-(cyclopropylamino)-8-fluoroquinazolin-6-yl)benzyl)-4-methoxybenzole sulfonamide], the “% Inhibition of mGluR5 Receptor (pig) [^3H]-MPEP Bond at 10 μM” value is recorded as 82%.
Still for that read-out and setting: with `Cc1cc2ncnc(NC3CC3)c2cc1-c1cccc(CN(C2CC2)S(=O)(=O)c2ccccc2)c1` [Example 721, N-cyclopropyl-N-(3-(4-(cyclopropylamino)-7-methylquinazolin-6-yl)benzyl)benzole sulfonamide] the figure was 87%; with `O=S(=O)(c1ccccc1)N(Cc1cc(-c2ccc3ncnc(NC4CC4)c3c2)ccn1)C1CC1` [Example 731, N-cyclopropyl-N-((4-(4-(cyclopropylamino)quinazolin-6-yl)pyridin-2-yl)methyl)benzole sulfonamide], 86%.

Still in this test, the particulars now being: 10 μM compound, 5 nM [3H]-MPEP, read-out: % Inhibition of mGluR5 Receptor (pig) [^3H]-MPEP Bond at 10 μM.
Turning to `Cc1cc2ncnc(NC3CC3)c2cc1-c1cccc(CN(C(=O)c2ccco2)C2CC2)c1` [Example 691, N-cyclopropyl-N-(3-(4-(cyclopropylamino)-7-methylquinazolin-6-yl)benzyl)furan-2-carboxamide], the inhibition at 10 µM was 83%.
The same measure, in the same setting: the value for `Cc1cc2ncnc(NC3CC3)c2cc1-c1cccc(CN(C(=O)c2cc(Cl)cc(Cl)c2)C2CC2)c1` [Example 692, 3,5-dichloro-N-cyclopropyl-N-(3-(4-(cyclopropylamino)-7-methylquinazolin-6-yl)benzyl)benzamide] was 67%; that for `O=C(c1ccccc1)N(Cc1cccc(-c2cc(F)c3ncnc(NC4CC4)c3c2)c1)C1CC1` [Example 693, N-cyclopropyl-N-(3-(4-(cyclopropylamino)-8-fluoroquinazolin-6-yl)benzyl)benzamide] was 102%; that for `Cc1cc2ncnc(NC3CC3)c2cc1-c1cccc(CN(C2CC2)S(C)(=O)=O)c1` [Example 697, N-cyclopropyl-N-(3-(4-(cyclopropylamino)-7-methylquinazolin-6-yl)benzyl)methane sulfonamide] was 90%.
Regarding `Cc1cc2ncnc(NC3CC3)c2cc1-c1cccc(CN(C(=O)c2cccs2)C2CC2)c1` [Example 698, N-cyclopropyl-N-(3-(4-(cyclopropylamino)-7-methylquinazolin-6-yl)benzyl)thiophene-2-carboxamide], the inhibition at 10 µM came to 89%.
Same read-out and setting: with `Cc1cc2ncnc(NC3CC3)c2cc1-c1cccc(CN(C(=O)c2ccccn2)C2CC2)c1` [Example 699, N-cyclopropyl-N-(3-(4-(cyclopropylamino)-7-methylquinazolin-6-yl)benzyl)picolinamide] the figure was 90%.
Same read-out and setting: with `COc1ccc(C(=O)N(Cc2cccc(-c3cc(F)c4ncnc(NC5CC5)c4c3)c2)C2CC2)cc1OC` [Example 700, N-cyclopropyl-N-(3-(4-(cyclopropylamino)-8-fluoroquinazolin-6-yl)benzyl)-3,4-dimethoxybenzamide] the figure was 81%.
On to `O=S(=O)(c1cccs1)N(Cc1cccc(-c2cc(F)c3ncnc(NC4CC4)c3c2)c1)C1CC1` [Example 701, N-cyclopropyl-N-(3-(4-(cyclopropylamino)-8-fluoroquinazolin-6-yl)benzyl)thiophene-2-sulfonamide], for which the inhibition at 10 µM came out at 93%.
For `Cc1cc2ncnc(NC3CC3)c2cc1-c1cccc(CN(C(=O)c2cccnc2)C2CC2)c1` [Example 702, N-cyclopropyl-N-(3-(4-(cyclopropylamino)-7-methylquinazolin-6-yl)benzyl)nicotinamide], the inhibition at 10 µM was 86%.
For `O=C(CCc1ccccc1)N(Cc1cccc(-c2cc(F)c3ncnc(NC4CC4)c3c2)c1)C1CC1` [Example 703, N-cyclopropyl-N-(3-(4-(cyclopropylamino)-8-fluoroquinazolin-6-yl)benzyl)-3-phenylpropanamide], the inhibition at 10 µM came to 87%.
Same read-out and setting: the value for `Cc1cc2ncnc(NC3CC3)c2cc1-c1cccc(CN(C2CC2)S(=O)(=O)C(C)C)c1` [Example 705, N-cyclopropyl-N-(3-(4-(cyclopropylamino)-7-methylquinazolin-6-yl)benzyl)propane-2-sulfonamide] was 86%.
In the case of `Cc1cc(C(=O)N(Cc2cccc(-c3cc4c(NC5CC5)ncnc4cc3C)c2)C2CC2)n(C)n1` [Example 706, N-cyclopropyl-N-(3-(4-(cyclopropylamino)-7-methylquinazolin-6-yl)benzyl)-1,3-dimethyl-1H-pyrazole-5-carboxamide], the inhibition at 10 µM is 69%.
As to `Cc1cc2ncnc(NC3CC3)c2cc1-c1cccc(CN(C(=O)c2ccncc2)C2CC2)c1` [Example 707, N-cyclopropyl-N-(3-(4-(cyclopropylamino)-7-methylquinazolin-6-yl)benzyl)isonicotinamide], the inhibition at 10 µM was determined as 89%.
Regarding `O=S(=O)(c1cccc2cccnc12)N(Cc1cccc(-c2cc(F)c3ncnc(NC4CC4)c3c2)c1)C1CC1` [Example 709, N-cyclopropyl-N-(3-(4-(cyclopropylamino)-8-fluoroquinazolin-6-yl)benzyl)quinoline-8-sulfonamide], the inhibition at 10 µM is 36%.
On to `Cc1cc2ncnc(NC3CC3)c2cc1-c1cccc(CN(C2CC2)S(=O)(=O)Cc2ccccc2)c1` [Example 713, N-cyclopropyl-N-(3-(4-(cyclopropylamino)-7-methylquinazolin-6-yl)benzyl)-1-phenylmethane sulfonamide], for which the inhibition at 10 µM is 51%.
With `Cc1cc2ncnc(NC3CC3)c2cc1-c1cccc(CN(C(=O)c2ccccc2)C2CC2)c1` [Example 714, N-cyclopropyl-N-(3-(4-(cyclopropylamino)-7-methylquinazolin-6-yl)benzyl)benzamide], the inhibition at 10 µM came out at 95%.
Still for that read-out and setting: with `CCCCC(=O)N(Cc1cccc(-c2cc3c(NC4CC4)ncnc3cc2C)c1)C1CC1` [Example 715, N-cyclopropyl-N-(3-(4-(cyclopropylamino)-7-methylquinazolin-6-yl)benzyl)pentanamide] the figure was 90%.
With `CNc1ncnc2ccc(-c3ccc(F)c(CN(C)C(=O)CN(C)C)c3)cc12` [Example 718, 2-(dimethylamino)-N-(2-fluoro-5-(4-(methylamino)quinazolin-6-yl)benzyl)-N-methylacetamide], the inhibition at 10 µM turned out to be 40%.
`Cc1cc2ncnc(NC3CC3)c2cc1-c1cccc(CN(C(=O)C(C)(C)C)C2CC2)c1` [Example 719, N-cyclopropyl-N-(3-(4-(cyclopropylamino)-7-methylquinazolin-6-yl)benzyl)pivalamide]: the inhibition at 10 µM came to 84%.
Consider `COc1ccc(C(=O)N(Cc2cccc(-c3cc4c(NC5CC5)ncnc4cc3C)c2)C2CC2)cc1OC` [Example 722, N-cyclopropyl-N-(3-(4-(cyclopropylamino)-7-methylquinazolin-6-yl)benzyl)-3,4-dimethoxybenzamide], for which the inhibition at 10 µM was determined as 72%.
`Cc1cc2ncnc(NC3CC3)c2cc1-c1cccc(CN(C(=O)CN(C)C)C2CC2)c1` [Example 723, N-cyclopropyl-N-(3-(4-(cyclopropylamino)-7-methylquinazolin-6-yl)benzyl)-2-(dimethylamino)acetamide]: the inhibition at 10 µM is 43%.
Turning to `CC(C)(C)C(=O)N(Cc1cccc(-c2cc(F)c3ncnc(NC4CC4)c3c2)c1)C1CC1` [Example 724, N-cyclopropyl-N-(3-(4-(cyclopropylamino)-8-fluoroquinazolin-6-yl)benzyl)pivalamide], the inhibition at 10 µM was 86%.
On to `Cc1cccc(CNc2ncnc3ccc(-c4cccc(CN(C(=O)CN(C)C)C5CC5)c4)cc23)c1` [Example 726, N-cyclopropyl-2-(dimethylamino)-N-(3-(4-(3-methylbenzylamino)quinazolin-6-yl)benzyl)acetamide], for which the inhibition at 10 µM is 65%.
The same measure, in the same setting: with `O=C(c1cccc(F)c1)N(Cc1cccc(-c2cc(F)c3ncnc(NC4CC4)c3c2)c1)C1CC1` [Example 727, N-cyclopropyl-N-(3-(4-(cyclopropylamino)-8-fluoroquinazolin-6-yl)benzyl)-3-fluorobenzamide] the figure was 93%.
On the same count and under the same terms, with `O=C(c1cccc(C(F)(F)F)c1)N(Cc1cccc(-c2cc(F)c3ncnc(NC4CC4)c3c2)c1)C1CC1` [Example 728, N-cyclopropyl-N-(3-(4-(cyclopropylamino)-8-fluoroquinazolin-6-yl)benzyl)-3-(trifluoromethyl)benzamide] the figure was 63%; with `COc1ccc(CNc2ncnc3ccc(-c4cccc(CN(C(=O)c5cc(C)nn5C)C5CC5)c4)cc23)c(OC)c1` [Example 730, N-cyclopropyl-N-(3-(4-(2,4-dimethoxybenzylamino)quinazolin-6-yl)benzyl)-1,3-dimethyl-1H-pyrazole-5-carboxamide], 35%.
Turning to `O=C(c1cccc(C(F)(F)F)c1)N(Cc1cc(-c2ccc3ncnc(NC4CC4)c3c2)ccc1Cl)C1CC1` [Example 732, N-(2-chloro-5-(4-(cyclopropylamino)quinazolin-6-yl)benzyl)-N-cyclopropyl-3-(trifluoromethyl)benzamide], the inhibition at 10 µM amounted to 63%.
